According to patent US20220348572A1, “BRIDGED HETEROCYCLYL-SUBSTITUTED PYRIMIDINE COMPOUND, PREPARATION METHOD THEREFOR, AND PHARMACEUTICAL USE THEREOF” (The National Institutes of Pharmaceutical R&D Co., Ltd., priority 2019, published 2022):

target: T1, JAK1 kinase (Homo sapiens, UniProt P23458); assay: In vitro inhibitory activity on JAK1 kinase (ADP-Glo Kinase Assay); format: biochemical; conditions: JAK1 kinase 4 nM, 1 mM ATP
T1 construct: purchased Invitrogen PV4744
Protocol: Test Example 1: Determination of In Vitro Inhibitory Activity of the Compounds of the Present Invention on JAK1 Kinase Experimental materials: JAK1 kinase (Invitrogen, PV4744), ATP (Promega, V915B), ADP-Glo Kinase Assay (Promega, V9101), IRS1 (Signalchem, 140-58-1000). Sample preparation: The compounds of the present invention and the control product were dissolved in DMSO solvent respectively to formulate into 10 mM initial liquid. The maximum concentration of the compound was 10 μM, 3-fold dilution, 10 concentration gradients, and duplicate wells for each concentration gradient. Experimental processs: 0.1 μL of the compound to be tested was transferred into a 384 reaction plate (PE, 6007290) via Echo and centrifuged at 1000 rpm/min for 1 min. 5 μL JAK1 kinase (final concentration of 4 nM) was transferred into the 384 reaction plate, which was then centrifuged at 1000 rpm/min for 1 min, and incubated at 25° C. for 15 min. 5 μL substrate mixture (1 mM ATP, IRS1 0.05 mg/ml, kinase buffer solution) was transferred into the 384 reaction plate, which was then centrifuged at 1000 rpm/min for 1 min, and incubated at 25° C. for 60 min. 10 μL ADP-Glo was transferred into the 384 reaction plate, which was then centrifuged at 1000 rpm/min for 1 min, and incubated at 25° C. for 40 min. 20 μL test solution was transferred into the 384 reaction plate, which was then centrifuged at 1000 rpm/min for 1 min and incubated at 25° C. for 40 min. RLU (Relative luminescence unit) signal was read by using an Envision multifunctional plate reader. The signal intensity was used to characterize the degree of the kinase activity. […] IC50 value of 0-100 nM is shown as A, IC50 value of 100-300 nM is shown as B, IC50 value of 300-1000 nM is shown as C, and IC50 value which is greater than 1000 nM is shown as D. NT means not tested.

T1 sequence (P23458 866-1154 limits assumed): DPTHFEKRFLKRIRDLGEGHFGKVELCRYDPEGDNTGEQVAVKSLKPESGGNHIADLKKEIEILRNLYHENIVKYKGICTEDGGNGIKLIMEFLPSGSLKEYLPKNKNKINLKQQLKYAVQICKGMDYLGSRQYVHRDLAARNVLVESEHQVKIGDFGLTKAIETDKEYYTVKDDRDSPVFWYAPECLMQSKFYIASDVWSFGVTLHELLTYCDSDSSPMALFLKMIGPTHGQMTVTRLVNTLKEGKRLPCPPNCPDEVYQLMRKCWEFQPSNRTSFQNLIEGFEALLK

`Cc1cnc(Nc2cnn(C)c2)nc1C1=C[C@H]2CC[C@@H](C1)N2C(=O)NCC(F)(F)F` [Compound 19-b, (1R,5S)-3-(5-methyl-2-((1-methyl-1H-pyrazol-4-yl)amino)pyrimidin-4-yl)-N-(2,2,2-trifluoroethyl)-8-azabicyclo[3.2.1]oct-2-ene-8-carboxamide] and `Cc1cnc(Nc2cnn(C)c2)nc1C1=C[C@@H]2CC[C@H](C1)N2C(=O)NCC(F)(F)F` [Compound 19-a, (1S,5R)-3-(5-methyl-2-((1-methyl-1H-pyrazol-4-yl)amino)pyrimidin-4-yl)-N-(2,2,2-trifluoroethyl)-8-azabicyclo[3.2.1]oct-2-ene-8-carboxamide] cannot be ordered by IC50: under 100 nM for the first, under 100 nM for the second.

`Cn1cc(Nc2ncc(Cl)c(C3=CC4CCC(C3)N4C(=O)[C@@H]3CC3(F)F)n2)cn1` (stereo partly drawn) [Compound 23, (3-(5-chloro-2-((1-methyl-1H-pyrazol-4-yl)amino)pyrimidin-4-yl)-8-azabicyclo[3.2.1]oct-2-en-8-yl)((S)-2,2-difluorocyclopropyl)methanone] and `Cn1cc(Nc2ncc(Cl)c(C3=C[C@@H]4CC[C@H](C3)N4C(=O)[C@@H]3CC3(F)F)n2)cn1` [Compound 23-a, ((1S,5R)-3-(5-chloro-2-((1-methyl-1H-pyrazol-4-yl)amino)pyrimidin-4-yl)-8-azabicyclo[3.2.1]oct-2-en-8-yl)((S)-2,2-difluorocyclopropyl)methanone] cannot be ordered by IC50: under 100 nM for the first, under 100 nM for the second.

`CCn1cc(Nc2nccc(C3=CC4CCC(C3)N4C(=O)[C@@H]3CC3(F)F)n2)cn1` (stereo partly drawn) [Compound 45, ((S)-2,2-Difluorocyclopropyl)(3-(2-((1-ethyl-1H-pyrazol-4-yl)amino)pyrimidin-4-yl)-8-azabicyclo[3.2.1]oct-2-en-8-yl)methanone] and `O=C([C@@H]1CC1(F)F)N1C2C=C(c3ccnc(Nc4cnn(CCO)c4)n3)CC1CC2` (stereo partly drawn) [Compound 40, ((S)-2,2-difluorocyclopropyl)(3-(2-((1-(2-hydroxyethyl)-1H-pyrazol-4-yl)amino)pyrimidin-4-yl)-8-azabicyclo[3.2.1]oct-2-en-8-yl)methanone] fall in the same range of IC50: 100 to 300 nM for the first, 100 to 300 nM for the second.

First: Cn1cc(Nc2nccc(C3=CC4CCC(C3)N4C(=O)[C@@H]3C[C@H]3C#N)n2)cn1 (stereo partly drawn) [Compound 47, (1R,2R)-2-(3-(2-((1-methyl-1H-pyrazol-4-yl)amino)pyrimidin-4-yl)-8-azabicyclo[3.2.1]oct-2-ene-8-formyl)cyclopropane-1-carbonitrile]
Second: Cn1cc(Nc2nccc(C3=CC4CCC(C3)N4C(=O)NC3COC3)n2)cn1 (stereo not drawn) [Compound 15, 3-(2-((1-methyl-1H-pyrazol-4-yl)amino)pyrimidin-4-yl)-N-(oxetan-3-yl)-8-azabicyclo[3.2.1]oct-2-ene-8-carboxamide]
The IC50 of the first is lower: 100 to 300 nM for the first, 300 to 1000 nM for the second.

`Cn1cc(Nc2nccc(C3=CC4CCC(C3)N4C(=O)C3(C)COC3)n2)cn1` (stereo not drawn) [Compound 13, (3-(2-((1-methyl-1H-pyrazol-4-yl)amino)pyrimidin-4-yl)-8-azabicyclo[3.2.1]oct-2-en-8-yl)(3-methyloxetan-3-yl)methanone] and `Cn1cc(Nc2nccc(C3=CC4CCC(C3)N4CC3(C)COC3)n2)cn1` (stereo not drawn) [Compound 87, N-(1-methyl-1H-pyrazol-4-yl)-4-(8-((3-methyloxetan-3-yl)methyl)-8-azabicyclo[3.2.1]oct-2-en-3-yl)pyrimidin-2-amine] cannot be ordered by IC50: over 1000 nM for the first, over 1000 nM for the second.

`Cc1cnc(Nc2cnn(C)c2)nc1C1=CC2CCC(C1)N2C(=O)[C@@H]1CC1(F)F` (stereo partly drawn) [Compound 22, ((S)-2,2-difluorocyclopropyl)(3-(5-methyl-2-((1-methyl-1H-pyrazol-4-yl)amino)pyrimidin-4-yl)-8-azabicyclo[3.2.1]oct-2-en-8-yl)methanone] and `Cc1cnc(Nc2cnn(C)c2)nc1C1=C[C@H]2CC[C@@H](C1)N2C(=O)[C@@H]1CC1(F)F` [Compound 22-b, ((S)-2,2-difluorocyclopropyl)((1R,5S)-3-(5-methyl-2-((1-methyl-1H-pyrazol-4-yl)amino)pyrimidin-4-yl)-8-azabicyclo[3.2.1]oct-2-en-8-yl)methanone] cannot be ordered by IC50: under 100 nM for the first, under 100 nM for the second.

Compared with `Cn1cc(Nc2nccc(C3=CC4CCC(C3)N4C(=O)C(=O)NCC(F)(F)F)n2)cn1` (stereo not drawn) [Compound 82, 2-(3-(2-((1-methyl-1H-pyrazol-4-yl)amino)pyrimidin-4-yl)-8-azabicyclo[3.2.1]oct-2-en-8-yl)-2-oxo-N-(2,2,2-trifluoroethyl)acetamide], `Cn1cc(Nc2nccc(C3=CC4CCC(C3)N4C(=O)C3(C(F)(F)F)CC3)n2)cn1` (stereo not drawn) [Compound 52, (3-(2-((1-methyl-1H-pyrazol-4-yl)amino)pyrimidin-4-yl)-8-azabicyclo[3.2.1]oct-2-en-8-yl)(1-(trifluoromethyl)cyclopropyl)methanone] is higher in IC50: 300 to 1000 nM for the first, over 1000 nM for the second. The first is the more potent here.

Compared with `Cn1cc(Nc2nccc(C3=CC4CCC(C3)N4C(=O)NC3(C(F)(F)F)CC3)n2)cn1` (stereo not drawn) [Compound 33, 3-(2-((1-methyl-1H-pyrazol-4-yl)amino)pyrimidin-4-yl)-N-(1-(trifluoromethyl)cyclopropyl)-8-azabicyclo[3.2.1]oct-2-ene-8-carboxamide], `Cn1cc(Nc2nccc(C3=CC4CCC(C3)N4C(=O)C34CC(C(F)(F)F)(C3)C4)n2)cn1` (stereo not drawn) [Compound 71, (3-(2-((1-methyl-1H-pyrazol-4-yl)amino)pyrimidin-4-yl)-8-azabicyclo[3.2.1]oct-2-en-8-yl)(3-(trifluoromethyl)bicyclo[1.1.1]pentan-1-yl)methanone] is higher in IC50: under 100 nM for the first, over 1000 nM for the second. The first is the more potent here.

`Cn1cc(Nc2nccc(C3=CC4CCC(C3)N4C3(CC#N)CN(C(=O)NCC(F)(F)F)C3)n2)cn1` (stereo not drawn) [Compound 86, 3-(cyanomethyl)-3-(3-(2-((1-methyl-1H-pyrazol-4-yl)amino)pyrimidin-4-yl)-8-azabicyclo[3.2.1]oct-2-en-8-yl)-N-(2,2,2-trifluoroethyl)azetidine-1-carboxamide] and `Cn1cc(Nc2nccc(C3=CC4CCC(C3)N4C3(CC#N)CN(C(=O)[C@@H]4CC4(F)F)C3)n2)cn1` (stereo partly drawn) [Compound 85, 2-(1-((S)-2,2-difluorocyclopropane-1-carbonyl)-3-(3-(2-((1-methyl-1H-pyrazol-4-yl)amino)pyrimidin-4-yl)-8-azabicyclo[3.2.1]oct-2-en-8-yl)azetidin-3-yl)acetonitrile] cannot be ordered by IC50: over 1000 nM for the first, over 1000 nM for the second.

`Cn1cc(Nc2nccc(C3=CC4CCC(C3)N4C(=O)c3cc(C#N)cs3)n2)cn1` (stereo not drawn) [Compound 18, 5-(3-(2-((1-methyl-1H-pyrazol-4-yl)amino)pyrimidin-4-yl)-8-azabicyclo[3.2.1]oct-2-ene-8-formyl)thiophene-3-carbonitrile] and `NC(=O)C1(n2cc(Nc3nccc(C4=CC5CCC(C4)N5C(=O)[C@@H]4CC4(F)F)n3)cn2)CC1` (stereo partly drawn) [Compound 39, 1-(4-((4-(8-((S)-2,2-Difluorocyclopropane-1-carbonyl)-8-azabicyclo[3.2.1]oct-2-en-3-yl)pyrimidin-2-yl)amino)-1H-pyrazol-1-yl)cyclopropane-1-carboxamide] cannot be ordered by IC50: over 1000 nM for the first, over 1000 nM for the second.

For `Cc1cnc(Nc2cn(C)nc2C)nc1C1=C[C@@H]2CC[C@H](C1)N2C(=O)NCC(F)(F)F` [Compound 26-a, (1S,5R)-3-(2-((1,3-dimethyl-1H-pyrazol-4-yl)amino)-5-methylpyrimidin-4-yl)-N-(2,2,2-trifluoroethyl)-8-azabicyclo[3.2.1]oct-2-ene-8-carboxamide], the IC50 was over 1000 nM.
